{"source": "patent US8673594B2", "about": "“Methods for stimulating nervous system regeneration and repair by regulating arginase I and polyamine synthesis” (Research Foundation of City University of New York, priority 2000, dated 2014)", "key": {"[1]": {"tested_on": "cerebellar neurons on MAG-expressing CHO cells", "test": "Neurite outgrowth of cerebellar neurons on MAG-expressing or control CHO cells", "type": "cell-based", "experimental": "FIG. 2: Improved Axonal Growth on MAG Induced By Elevating cAMP Levels is Transcription-Dependent. (A) Isolated cerebellar neurons at a density of 20,000 neurons per well were plated onto a monolayer of either MAG-expressing Chinese hamster ovary (CHO) cells (striped bars) or control CHO cells (black bars) and cultured overnight before being fixed and immunostained for GAP43 to visualize the neurites. The length of the longest neurite per neuron, from 180-200 neurons, was measured and results are the average length+/−SEM. Where indicated, dibutyryl cAMP (dbcA) at 1 mM in the presence or absence of the inhibitor of transcription, 5,6-dichloro-1-b-D-ribofuranosylbenzimidazole (DRB) at 5 μM, was added to each culture. (B) Cerebellar neurons (1×10^6) were plated onto poly-L-lysine and cultured overnight with brain-derived neurotrophic factor (BDNF) at 200 ng/ml, (termed priming) in the presence or absence of DRB at 5 μM, before being transferred to the CHO cell monolayers.\nFIG. 6: An Ornithine Decarboxylase (ODC) Inhibitor Abrogates the Blocking Effect of dbcAMP on the Inhibition of Axonal Outgrowth by MAG and Myelin. […] The longest neurite from at least 180-200 neurons were measured. Results are shown as the mean neurite length+/−SEM.\n(§1) After further incubation, neurons were fixed and immunostained for GAP43. The longest neurite from each neuron for 180-200 neurons were measured. Results are shown as the mean neurite length+/−SEM.\nFIG. 8: An Inhibitor Of ODC Blocks The Priming Effects Of GDNF On The Inhibition By MAG. […] After further incubation, neurons were fixed and immunostained for GAP43. The longest neurite from each neuron for 180-200 neurons were measured. Results are shown as the mean neurite length±SEM.\nPrimed neurons were transferred to either MAG-expressing or control CHO cells (A) or a substrate of CNS myelin (B) for further incubation. Neurons were then fixed and immunostained for GAP43. The longest neurite from each neuron was measured for 180-200 neurons. Results are shown as the percentage of control. […]\nNeurons were isolated essentially as described in Doherty at al., Nature, 343, pp. 464-66 (1990); Neuron, 5, pp. 209-19 (1990); and Kleitman at al., Culturing Nerve Cells, pp. 337-78, MIT Press, Cambridge, Mass./London, England (G. Banker and K Goslin, Eds.) (1991). Briefly, for animals up to nine days of age, the cerebellum, from two animals were removed and combined in 5 ml of 0.025% trypsin in PBS, triturated, and incubated for a further 10 minutes (min.) at 37° C. Trypsinization was stopped by addition of 5 ml DMEM containing 10% fetal calf serum (FCS) and cells were centrifuged at 800 rpm for 6 min. […] For older DRG neurons, ganglia were removed from two animals and incubated in 5 ml of Sat medium containing 0.025% trypsin and 0.15% collagenase type I (Worthington) for 30 min. at 37° C. The ganglia were triturated with a fire-polished Pasteur pipette. Trypsinization was stopped by adding 5 ml of DMEM containing 10% FCS, centrifuged at 800 rpm for 6 min, and resuspended in 2 ml of SAT (DeBellard et al., 1996). Cells were counted with a Coulter counter.\nChinese hamster ovary (CHO) cells deficient in the dihydrofolate reductase (dhfr) gene (Urlaub and Chasin, Proc. Natl, Acad, Sci. 77, pp. 4216-20 (1980)) were transfected with a MAG-cDNA expression plasmid with the dhfr gene and the L-MAG cDNA, cells with multiple copies of dbfr were selected by growing in increasing concentrations of methotrexate, and the expression of MAG by individual transfected CHO cell lines characterized as described in Mukhopadhyay et al., Neuron, 13, pp. 757-67 (1994), which is incorporated herein by reference. The MAG-expressing transfected CHO cell line) (“CHO-MAG2”) in that publication was deposited on Jun. 27, 1996 with the American Type Culture Collection (ATCC) (Rockville, Md.) according to the provisions of the Budapest Treaty, and was assigned the ATCC accession number designated: ATCC CRL-12145. […]"}, "[2]": {"tested_on": "DRG neurons on MAG-expressing CHO cells", "test": "Neurite outgrowth of DRG neurons on MAG-expressing or control CHO cells", "type": "cell-based", "conditions": "P0-1 DRG neurons, DFMO 1 mM", "experimental": "After overnight incubation, neurons were fixed and immunostained for GAP 43. The longest neurite from each of 120-150 DRG neurons were measured. Results are shown as the mean neurite length+/−SEM.\nFIG. 14: Over-Expression Of Arginase In Older DRG Neurons By Adenovirus-Mediated Gene Transfer Is Sufficient To Overcome Inhibition By MAG. Postnatal day 5 DRG neurons (0.5×10^6) were plated in 24-well plates and infected with adenovirus containing ArgI-GFP or GFP alone. Alter overnight culture, infected neurons were transferred to MAG-expressing (stippled bars) or control (black bars) CHO cells for neurite outgrowth. Neurons were fixed and immunostained for GAP43. The neurons with double staining of GAP43 and GFP were considered as positively infected. The length of the longest neurite per neuron was measured for 120-150 positively infected neurons. Results are shown as the average neurite length+/−SEM of GFP-infected (GFP) or ArgI-infected (ArgI) neurons grown on MAG.\nNeurons were isolated essentially as described in Doherty at al., Nature, 343, pp. 464-66 (1990); Neuron, 5, pp. 209-19 (1990); and Kleitman at al., Culturing Nerve Cells, pp. 337-78, MIT Press, Cambridge, Mass./London, England (G. Banker and K Goslin, Eds.) (1991). […] Cells were counted with a Coulter counter. […]"}, "[3]": {"molecular_target": "T1, arginase (Rattus norvegicus, UniProt P07824)", "T1 sequence (P07824 1-323)": "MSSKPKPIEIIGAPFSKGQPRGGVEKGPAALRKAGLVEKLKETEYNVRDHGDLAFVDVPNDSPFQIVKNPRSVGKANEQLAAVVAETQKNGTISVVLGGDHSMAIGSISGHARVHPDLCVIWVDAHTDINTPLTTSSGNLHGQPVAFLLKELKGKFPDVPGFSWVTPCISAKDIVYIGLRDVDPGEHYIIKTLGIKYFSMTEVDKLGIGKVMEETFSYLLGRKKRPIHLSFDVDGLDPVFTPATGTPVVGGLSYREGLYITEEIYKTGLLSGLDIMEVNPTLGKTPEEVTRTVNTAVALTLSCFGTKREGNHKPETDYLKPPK", "conditions": "cited from earlier work"}, "[4]": {"tested_on": "cerebellar neurons on purified CNS myelin", "test": "Neurite outgrowth of cerebellar neurons on purified CNS myelin substrate", "type": "cell-based", "experimental": "Isolated cerebellar neurons at a density of 20,000 neurons per well were plated onto a substrate of purified CNS myelin and cultured overnight before being fixed and immunostained for GAP43. The length of the longest neurite per neuron from 180-200 neurons was measured and results are the average length+/−SEM. Where indicated, dibutyryl cAMP (dbcA) at 1 mM in the presence or absence of the inhibitor of transcription, 5,6-dichloro-1-b-D-ribofuranosylbenzimidazole (DRB) at 5 μM, was added to each culture. (B) Cerebellar neurons (1×10^6) were plated onto poly-L-lysine and cultured overnight with brain-derived neurotrophic factor (BDNF) at 200 ng/ml, (termed priming) in the presence or absence of DRB at 5 μM, before being transferred to the CNS myelin substrate.\nThe longest neurite from at least 180-200 neurons were measured. Results are shown as the mean neurite length+/−SEM.\nas §1\nPrimed neurons were transferred to either MAG-expressing or control CHO cells (A) or a substrate of CNS myelin (B) for further incubation. Neurons were then fixed and immunostained for GAP43. The longest neurite from each neuron was measured for 180-200 neurons.\nTrypsinization was stopped by addition of 5 ml DMEM containing 10% fetal calf serum (FCS) and cells were centrifuged at 800 rpm for 6 min. […] The ganglia were triturated with a fire-polished Pasteur pipette. […] Cells were counted with a Coulter counter.\nThe neurite outgrowth assay was carried out by adding 5×10^4 neurons to the immobilized myelin substrate or 2×10^4 neurons to the CHO cell monolayers. Briefly, confluent monolayers of control and MAG-expressing CHO cells were established over a 24-hour (h) period in individual chambers of an 8-well tissue culture slide (Lab-Tek). […] Culture medium was SATO containing 2% FCS.\nGAP43 antibody was detected by staining with Texas Red and arginase antibody was detected with anti-biotin secondary antibody followed by Texas Red-conjugated streptavidin.\nAfter periods of time as indicated, the co-cultures were fixed for 30 min with 4% paraformaldehyde and permeabilized with ice-cold methanol for 2 min. […] After three more washes, the slides were mounted in Permfluor (Baxter) and viewed with a Zeiss fluorescent microscope. The length of the longest neurite for each GAP43-positive neuron was determined using the Biological Detection System image analysis program (Pittsburgh)."}, "[5]": {"conditions": "putrescine in the culture, no priming"}}}
{"compound": "Cl.NCCCC(N)(C(=O)O)C(F)F", "note": "(racemic) [DFMO, DL-a-difluoromethyl-ornithine hydrochloride]", "values": [{"measurement": "effect on the positive (priming) effect of BDNF on axonal growth in the presence of MAG", "setting": "[1]; DFMO 1 mM during overnight priming with BDNF 200 ng/ml", "value": "completely abrogated"}, {"measurement": "effect on the positive (priming) effect of GDNF on axonal growth in the presence of MAG", "setting": "[1]; DFMO 1 mM during overnight priming with GDNF 200 ng/ml", "value": "completely abrogated"}, {"measurement": "effect on the dbcAMP block of inhibition by MAG", "setting": "[1]; DFMO 1 mM with dbcAMP 1 mM", "value": "lost"}, {"measurement": "effect alone on neurite growth on control CHO cells", "setting": "[1]; DFMO 1 mM, control CHO cells", "value": "no significant effect"}, {"measurement": "effect alone on inhibition by MAG", "setting": "[1]; DFMO 1 mM, no dbcAMP", "value": "no significant effect"}, {"measurement": "effect alone on neurite growth on control CHO cells, young DRG neurons", "setting": "[2]", "value": "no effect"}, {"measurement": "effect on promotion of axonal growth by MAG in young DRG neurons", "setting": "[2]; overnight", "value": "completely abolished"}]}
{"compound": "N[C@@H](CCCCB(O)O)C(=O)O", "note": "[ABH, 2(S)-amino-6-boronohexanoic acid]", "values": [{"measurement": "arginase inhibitor potency, in words", "setting": "[3]", "value": "most potent inhibitor of arginase identified to date"}]}
{"compound": "OC[C@H]1O[C@@H](n2cnc3cc(Cl)c(Cl)cc32)[C@H](O)[C@@H]1O", "note": "[DRB, 5,6-dichloro-1-b-D-ribofuranosylbenzimidazole]", "values": [{"measurement": "effect of transcription inhibitor on the dbcAMP/BDNF block of MAG inhibition", "setting": "[1]; DRB 5 μM with dbcAMP 1 mM or BDNF 200 ng/ml priming", "value": "neither dbcAMP nor BDNF block inhibition"}]}
{"compound": "NCCCCN", "note": "[putrescine]", "values": [{"measurement": "putrescine dose above which the blocking effect on MAG saturates", "setting": "[1]; overnight priming", "value": "higher than 25 μM"}, {"measurement": "effect of putrescine on BDNF priming blocked by DFMO (MAG)", "setting": "[1]; putrescine (10 mM as printed elsewhere in the source) with DFMO 1 mM and BDNF during priming", "value": "restored the priming effect of BDNF"}, {"measurement": "block of inhibition of axonal growth by MAG, putrescine added without priming", "setting": "[1]; [5]", "value": "only partially blocks"}, {"measurement": "putrescine concentration at which the blocking effect on myelin saturates", "setting": "[4]; overnight priming", "value": "about 50 μM"}, {"measurement": "increase in axonal outgrowth on CNS myelin", "setting": "[4]; priming with putrescine at 10 μM", "value": "two-fold"}, {"measurement": "block of inhibition of axonal growth by myelin, putrescine added without priming", "setting": "[4]; [5]", "value": "only partially blocks"}]}
